Data published in PubChem BioAssay AID1845211 (Molecular Pharmacology Branch, DTP, NCI, 2023).

Tested on: NCI-H322M multicellular tumor spheroids, viability (% test/control)
Experiment: Anticancer human tumor NCI-H322M cell line growth inhibition;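 for viability, T/C: spheroids exposed to compound for seven days before readout; 100% = DMSO vehicle control wells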
Settings: for IC50: curve of first compound; for viability, T/C: stronger effect = lower value
Summary of the method: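 Complex tumor spheroids combined malignant cells with endothelial cells and mesenchymal stem cells. DNA-damaging drugs and DNA repair inhibitors were tested alone and in combination, at half-log dilutions down from clinical Cmax (top 10 microM if Cmax unknown), 0.25% DMSO final.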

[1] = second compound 30 pM, first compound 0.00949 µM
[2] = second compound 30 pM, first compound 0.03 µM
[3] = second compound 30 pM, first compound 0.0949 µM
[4] = second compound 30 pM, first compound 0.3 µM
[5] = second compound 30 pM, first compound 0.949 µM
[6] = second compound 30 pM, first compound 3 µM
[7] = second compound 94.9 pM, first compound 0.00949 µM
[8] = second compound 94.9 pM, first compound 0.03 µM
[9] = second compound 94.9 pM, first compound 0.0949 µM
[10] = second compound 94.9 pM, first compound 0.3 µM
[11] = second compound 94.9 pM, first compound 0.949 µM
[12] = second compound 94.9 pM, first compound 3 µM
[13] = second compound 0.0003 µM, first compound 0.00949 µM
[14] = second compound 0.0003 µM, first compound 0.03 µM
[15] = second compound 0.0003 µM, first compound 0.0949 µM
[16] = second compound 0.0003 µM, first compound 0.3 µM
[17] = second compound 0.0003 µM, first compound 0.949 µM
[18] = second compound 0.0003 µM, first compound 3 µM
[19] = second compound 0.000949 µM, first compound 0.00949 µM
[20] = second compound 0.000949 µM, first compound 0.03 µM
[21] = second compound 0.000949 µM, first compound 0.0949 µM
[22] = second compound 0.000949 µM, first compound 0.3 µM
[23] = second compound 0.000949 µM, first compound 0.949 µM
[24] = second compound 0.000949 µM, first compound 3 µM
[25] = second compound 0.003 µM, first compound 0.00949 µM
[26] = second compound 0.003 µM, first compound 0.03 µM
[27] = second compound 0.003 µM, first compound 0.0949 µM
[28] = second compound 0.003 µM, first compound 0.3 µM
[29] = second compound 0.003 µM, first compound 0.949 µM
[30] = second compound 0.003 µM, first compound 3 µM

Row | Structure (SMILES) | IC50 (second compound 30 pM) [µM] | IC50 (second compound 94.9 pM) [µM] | IC50 (second compound 0.0003 µM) [µM] | IC50 (second compound 0.000949 µM) [µM] | IC50 (second compound 0.003 µM) [µM] | viability, T/C [3] [%] | viability, T/C [4] [%] | viability, T/C [5] [%] | viability, T/C [6] [%] | viability, T/C [9] [%] | viability, T/C [10] [%] | viability, T/C [11] [%] | viability, T/C [12] [%] | viability, T/C [15] [%] | viability, T/C [16] [%] | viability, T/C [17] [%] | viability, T/C [18] [%] | viability, T/C [21] [%] | viability, T/C [22] [%] | viability, T/C [23] [%] | also measured
1 | CNCc1ccc(-c2cc(-c3nc(-c4ccc(S(=O)(=O)C(C)C)cc4)cnc3N)on2)cc1 + COc1cc2c(cc1O)CCNC21CSC2c3c(OC(C)=O)c(C)c4c(c3C(COC1=O)N1C(O)C3Cc5cc(C)c(OC)c(O)c5C(C21)N3C)OCO4 | > 3 | > 3 | > 3 | 0.479 | < 0.00949 | 82.5 | 76.4 | 69.5 | 70 | 85.6 | 73.4 | 66.4 | 66.1 | 77.8 | 60.5 | 59.4 | 59.2 | 71.4 | 51.9 | 47.3 | viability, T/C [1]: 98.7%; viability, T/C [2]: 102%; viability, T/C [7]: 95.5%; viability, T/C [8]: 80.2%; viability, T/C [13]: 85.7%; viability, T/C [14]: 85.8%; viability, T/C [19]: 81.9%; viability, T/C [20]: 76.9%; viability, T/C [24]: 44.4%; viability, T/C [25]: 9.27%; viability, T/C [26]: 10.9%; viability, T/C [27]: 10.1%; viability, T/C [28]: 9.72%; viability, T/C [29]: 12.4%; viability, T/C [30]: 7.67%
2 | Cc1sc2c(c1C)C(c1ccc(Cl)cc1)=NC(CC(=O)Nc1ccc(O)cc1)c1nnc(C)n1-2 (stereo not given) + COc1cc2c(cc1O)CCNC21CSC2c3c(OC(C)=O)c(C)c4c(c3C(COC1=O)N1C(O)C3Cc5cc(C)c(OC)c(O)c5C(C21)N3C)OCO4 | > 3 | > 3 | 1.59 | 0.333 | < 0.00949 | 136 | 112 | 74 | 60.1 | 123 | 110 | 72.5 | 53.6 | 133 | 119 | 63.9 | 33.1 | 80.7 | 60.2 | 19.5 | viability, T/C [1]: 113%; viability, T/C [2]: 118%; viability, T/C [7]: 104%; viability, T/C [8]: 112%; viability, T/C [13]: 117%; viability, T/C [14]: 133%; viability, T/C [19]: 127%; viability, T/C [20]: 87.6%; viability, T/C [24]: 11.9%; viability, T/C [25]: 9.9%; viability, T/C [26]: 6.99%; viability, T/C [27]: 6.13%; viability, T/C [28]: 2.83%; viability, T/C [29]: 1.47%; viability, T/C [30]: 1.17%
3 | Cn1ncnc1[C@H]1c2n[nH]c(=O)c3cc(F)cc(c23)N[C@@H]1c1ccc(F)cc1 + COc1cc2c(cc1O)CCNC21CSC2c3c(OC(C)=O)c(C)c4c(c3C(COC1=O)N1C(O)C3Cc5cc(C)c(OC)c(O)c5C(C21)N3C)OCO4 | > 3 | > 3 | > 3 | 1.52 | < 0.00949 | 68.8 | 82 | 75.2 | 65.6 | 78.8 | 70.5 | 68.2 | 59.5 | 82.9 | 77.8 | 67.3 | 62.9 | 72.5 | 64.4 | 56.9 | viability, T/C [1]: 78.7%; viability, T/C [2]: 89.2%; viability, T/C [7]: 71.4%; viability, T/C [8]: 78.2%; viability, T/C [13]: 88.8%; viability, T/C [14]: 85%; viability, T/C [19]: 73.6%; viability, T/C [20]: 68.6%; viability, T/C [24]: 40.3%; viability, T/C [25]: 6.87%; viability, T/C [26]: 9.48%; viability, T/C [27]: 6.81%; viability, T/C [28]: 3.83%; viability, T/C [29]: 10.6%; viability, T/C [30]: 1.7%
4 | O=C(c1cc(Cc2n[nH]c(=O)c3ccccc23)ccc1F)N1CCN(C(=O)C2CC2)CC1 + COc1cc2c(cc1O)CCNC21CSC2c3c(OC(C)=O)c(C)c4c(c3C(COC1=O)N1C(O)C3Cc5cc(C)c(OC)c(O)c5C(C21)N3C)OCO4 | > 30 | > 30 | > 30 | 20.8 | < 0.0949 | 81.3 | 84.3 | 90.6 | 79.8 | 90.7 | 84.9 | 88.5 | 87.5 | 99.6 | 84.7 | 79.9 | 83.3 | 83.4 | 77.7 | 69.5 | viability, T/C (second compound 30 pM, first compound 9.49 µM): 85.8%; viability, T/C (second compound 30 pM, first compound 30 µM): 110%; viability, T/C (second compound 94.9 pM, first compound 9.49 µM): 79.4%; viability, T/C (second compound 94.9 pM, first compound 30 µM): 98.5%; viability, T/C (second compound 0.0003 µM, first compound 9.49 µM): 79.8%; viability, T/C (second compound 0.0003 µM, first compound 30 µM): 95.9%; viability, T/C [24]: 72.7%; viability, T/C (second compound 0.000949 µM, first compound 9.49 µM): 67.6%; viability, T/C (second compound 0.000949 µM, first compound 30 µM): 42.2%; viability, T/C [27]: 11.3%; viability, T/C [28]: 14.1%; viability, T/C [29]: 8.06%; viability, T/C [30]: 7.88%; viability, T/C (second compound 0.003 µM, first compound 9.49 µM): 4.62%; viability, T/C (second compound 0.003 µM, first compound 30 µM): 1.81%
